Laboratory results reported in ChEMBL document CHEMBL1201862, “PubChem BioAssay data set” (2004).
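In this assay, cells in 96-well plates receive the compound at five concentrations for 48 hours. Endpoints are linearly interpolated between the surrounding concentrations. The concentration for 50% growth inhibition is given as GI50.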 Calls of active or inactive are those of the source. Rule as the data show it: active = GI50 up to about 1.1 µM and inactive = higher.

Columns and labels:
Test in all cases: NCI tumour cell line growth inhibition, 48 h
[1] = test system: A498
[2] = test system: HCT-116
[3] = test system: HT-29
[4] = test system: M14
[5] = test system: NCI-H226
[6] = test system: NCI-H23
[7] = test system: NCI-H522
[8] = test system: OVCAR-3
[9] = test system: OVCAR-4
[10] = test system: RXF 393
[11] = test system: SF-268
[12] = test system: SK-MEL-2
[13] = test system: SN12C
[14] = test system: SR
[15] = test system: UACC-257
[16] = test system: UACC-62
[17] = test system: UO-31
[18] = test system: LOX IMVI
[19] = test system: SNB-75

Measured: GI50

O=C1c2ccccc2C(=O)c2[nH]cnc21
inactive: [1] > 100 µM | [2] 45.4 µM | [3] 33.5 µM | [4] 41.4 µM | [5] 29.8 µM | [6] 30.2 µM | [7] 34 µM | [8] 21.5 µM | [9] 76.6 µM | [10] > 100 µM | [11] 93.1 µM | [12] > 100 µM | [13] 95.7 µM | [14] 44 µM | [15] 23 µM | [16] 31.9 µM | [17] > 100 µM

COC(=O)C(=O)C(C(=O)C(=O)Nc1ccc([N+](=O)[O-])cc1C#N)c1nc2ccc([N+](=O)[O-])cc2nc1O (stereo not drawn)
inactive: [1] 52.2 µM | [2] > 100 µM | [3] > 100 µM | [18] > 100 µM | [4] > 100 µM | [5] 57.5 µM | [7] > 100 µM | [8] > 100 µM | [9] > 100 µM | [10] > 100 µM | [11] > 100 µM | [12] > 100 µM | [13] > 100 µM | [19] > 100 µM | [14] 96.8 µM | [15] > 100 µM | [16] > 100 µM | [17] > 100 µM

Nc1nc(-c2ccco2)cc(-c2ccc(CO)o2)n1
inactive: [2] > 100 µM | [3] > 100 µM | [18] > 100 µM | [4] > 100 µM | [5] 54.3 µM | [6] > 100 µM | [7] 85.5 µM | [8] > 100 µM | [9] > 100 µM | [10] > 100 µM | [11] > 100 µM | [12] > 100 µM | [13] > 100 µM | [19] 72.9 µM | [14] > 100 µM | [16] > 100 µM | [17] 60.3 µM

CCOC(=O)C1Cc2[nH]c3ccccc3c2C(C)C1C (stereo not drawn)
inactive: [1] 17.4 µM | [2] 16.3 µM | [18] 14.8 µM | [4] 16.7 µM | [5] 11.6 µM | [6] 13.5 µM | [7] 12.2 µM | [8] 15.6 µM | [9] 16 µM | [11] 19.5 µM | [12] 20.2 µM | [13] 18.4 µM | [19] 8.09 µM | [14] 16.6 µM | [15] 17.6 µM | [16] 10.8 µM | [17] 12.8 µM

CC12C/C(=C\c3ccccc3)C(=O)C3C1CCCC32
inactive: [1] > 100 µM | [2] 67.8 µM | [3] 31.6 µM | [18] 72.8 µM | [4] > 100 µM | [5] > 100 µM | [6] > 100 µM | [7] 26.5 µM | [8] 74.6 µM | [9] 66.4 µM | [11] > 100 µM | [12] > 100 µM | [13] > 100 µM | [19] 92.9 µM | [14] 36.8 µM | [15] 53 µM | [16] > 100 µM | [17] > 100 µM

COc1ccc(/N=C(/[N-]n2c(=O)c(C)nn(C)c2=S)N(c2ccc(OC)cc2)c2n[n+]3c(=O)c(C)nn(C)c3s2)cc1
inactive: [1] 93.3 µM | [2] > 100 µM | [3] > 100 µM | [18] > 100 µM | [4] > 100 µM | [5] > 100 µM | [6] > 100 µM | [7] > 100 µM | [9] > 100 µM | [10] > 100 µM | [11] > 100 µM | [13] > 100 µM | [19] > 100 µM | [14] > 100 µM | [15] > 100 µM | [16] > 100 µM

O=C1C[C@@H]2[C@@H](c3ccccc3)[C@@H]3C(=O)c4ccccc4NC(=O)[C@H]3[C@]2(O)c2ccccc2N1
inactive: [2] > 100 µM | [3] > 100 µM | [18] > 100 µM | [4] > 100 µM | [5] > 100 µM | [6] > 100 µM | [7] > 100 µM | [8] > 100 µM | [9] > 100 µM | [10] > 100 µM | [11] > 100 µM | [12] > 100 µM | [13] > 100 µM | [19] > 100 µM | [14] > 100 µM | [16] > 100 µM | [17] > 100 µM

CCOC(=O)C/C(N)=C(\C#N)C(=O)OCC
inactive: [1] > 100 µM | [2] > 100 µM | [3] > 100 µM | [18] > 100 µM | [4] > 100 µM | [5] > 100 µM | [6] > 100 µM | [7] > 100 µM | [8] > 100 µM | [10] > 100 µM | [11] > 100 µM | [12] > 100 µM | [13] > 100 µM | [19] > 100 µM | [14] > 100 µM | [16] > 100 µM | [17] > 100 µM

O=C(C=C1SCCS1)/C=C\c1ccc(Cl)cc1
inactive: [1] > 100 µM | [2] > 100 µM | [3] 41.4 µM | [18] 53.8 µM | [4] > 100 µM | [5] 83.2 µM | [6] > 100 µM | [7] > 100 µM | [8] > 100 µM | [9] > 100 µM | [11] > 100 µM | [12] > 100 µM | [13] > 100 µM | [19] > 100 µM | [14] 85.7 µM | [15] 80.2 µM | [16] 99.8 µM | [17] > 100 µM

Cc1cc(-c2ccccc2)nc(Nc2nc3ccccc3o2)n1
inactive: [1] > 100 µM | [2] > 100 µM | [3] > 100 µM | [18] > 100 µM | [4] > 100 µM | [5] > 100 µM | [6] > 100 µM | [7] > 100 µM | [8] > 100 µM | [9] > 100 µM | [11] > 100 µM | [12] > 100 µM | [13] > 100 µM | [14] > 100 µM | [15] > 100 µM | [16] > 100 µM | [17] > 100 µM

CS(=O)(=O)c1nc(N)nc2nc[nH]c12
inactive: [1] > 100 µM | [2] > 100 µM | [3] > 100 µM | [18] > 100 µM | [4] > 100 µM | [5] > 100 µM | [6] > 100 µM | [7] 74.8 µM | [8] > 100 µM | [9] > 100 µM | [10] > 100 µM | [11] > 100 µM | [12] > 100 µM | [13] > 100 µM | [14] > 100 µM | [15] > 100 µM | [16] > 100 µM | [17] > 100 µM

CC(=O)CC(=O)Nc1ccccc1[N+](=O)[O-]
inactive: [1] > 100 µM | [2] > 100 µM | [3] > 100 µM | [4] > 100 µM | [5] > 100 µM | [6] > 100 µM | [7] > 100 µM | [8] > 100 µM | [9] > 100 µM | [10] > 100 µM | [11] > 100 µM | [12] > 100 µM | [13] > 100 µM | [19] > 100 µM | [14] > 100 µM | [15] > 100 µM | [16] > 100 µM | [17] > 100 µM

Cn1c(=O)c2ccc(-c3ccc(Br)cc3)nc2n(C)c1=O
inactive: [1] > 100 µM | [2] 68.9 µM | [3] > 100 µM | [18] > 100 µM | [4] > 100 µM | [5] > 100 µM | [6] 51.2 µM | [7] > 100 µM | [8] > 100 µM | [9] > 100 µM | [11] > 100 µM | [12] > 100 µM | [19] 29.6 µM | [14] > 100 µM | [15] > 100 µM | [16] > 100 µM | [17] > 100 µM

CO[C@]12CCC(=O)N1C=Cc1c2[nH]c2ccccc12
inactive: [1] > 100 µM | [2] > 100 µM | [3] > 100 µM | [18] > 100 µM | [4] > 100 µM | [5] > 100 µM | [6] > 100 µM | [8] > 100 µM | [9] > 100 µM | [10] > 100 µM | [11] > 100 µM | [19] > 100 µM | [14] > 100 µM | [15] > 100 µM | [16] > 100 µM | [17] > 100 µM

Cc1nc2c(o1)/C(=N\c1ccccc1)c1nc(C)oc1/C2=N/c1ccccc1
inactive: [1] 1.29 µM | [2] 19.4 µM | [3] 20.4 µM | [18] 28.2 µM | [4] 36.4 µM | [5] 21.4 µM | [6] 25.9 µM | [7] 21.7 µM | [8] 39.2 µM | [10] 20.6 µM | [11] 23.7 µM | [12] 26.8 µM | [13] 17.5 µM | [19] 11.7 µM | [14] 60.5 µM | [15] 29.6 µM | [16] 18.8 µM | [17] 17.2 µM

CCCCCCCCCCCCCCCCOP(=O)(O)Oc1ccc(/C=C\c2ccc(OP(=O)(O)OCCCCCCCCCCCCCCCC)cc2)cc1
inactive: [1] 83.9 µM | [2] 54 µM | [3] 62.7 µM | [18] > 100 µM | [4] 45.6 µM | [5] 42.7 µM | [6] 23.5 µM | [7] 29.6 µM | [8] 43.2 µM | [9] 62.5 µM | [10] 2.47 µM | [11] 34.9 µM | [12] > 100 µM | [13] > 100 µM | [19] 12 µM | [14] 30 µM | [15] > 100 µM | [16] > 100 µM | [17] > 100 µM
